From patent US9963434B2, “N-arylmethyl sulfonamide negative modulators of NR2A” (LUC THERAPEUTICS, priority 2013, dated 2018) come the findings set out here.

Structures are written as SMILES. Where two headings read alike, the source gives them in different places.

The assay addresses NR1/NR2A (Homo sapiens (Human), UniProt Q05586+Q12879). As to the kind of experiment: FDSS Ca2+ influx inhibition assay in HEK293 cells expressing NR1/NR2A. It counts as cell-based. The conditions noted are these: 3 μM glutamate, 3 μM glycine, 1 mM Ca2+. The protocol:
Cell Culture and plating: HEK293 cells expressing NR1/NR2A (Chantest, Cleveland, Ohio) were grown to 70-80% confluency as an adherent monolayer in standard tissue culture flasks at 37° C., 5% CO2 per supplier's instructions.
After induction, cell culture medium was removed and cells were rinsed once with Ca^2+ and Mg^2+-free Dulbecco's phosphate buffered saline. Cells were then removed from the flask using TrypLE™ Express (Life Technologies) according to the manufacturer's instructions and collected to 50 ml centrifuge tubes. Following two washes in Ca^2+/Mg^2+-free HBSS with 20 mM HEPES (HHnoCa), cells were counted and viability assessed using trypan blue. To load cells with Ca^2+-sensitive dye, they were resuspended in fluo-8 plus Component B (AAT Bioquest Products) diluted in HHnoCa and incubated 15 minutes at 37° C., followed by 30 minutes at room temp (in dark). Cells were then washed and resuspended in HHnoCa to remove extracellular dye and plated in 384-well plates (Falcon, uncoated) at 20,000-30,000 cells/well in a final volume of 25 μL/well.
FDSS Assay: To each well of the plate, 10 μL test compound, control (MK801) or HHnoCa buffer was added to a final concentration of 10 μM with a final concentration of DMSO of 0.1%. Following 10 minutes pre-incubation in the dark, plates are loaded onto the Hamamatsu FDSS 6000. After collecting baseline fluorescence images, 3 μM glutamate, 3 μM glycine, and 1 mM Ca^2+ in HHnoCa buffer is added to each well, and Ca^2+ is recorded for 3 minutes. Data were processed by computing ratio of fluorescence at the end of data collection to baseline fluorescence to assess degree of Ca^2+ influx inhibition relative to that observed in MK801.

The mark [1] stands for this setting: inhibition relative to MK801, read-out: NR2A IC50.

Chain of NR1/NR2A (Q12879 23-1464, other chains not shown): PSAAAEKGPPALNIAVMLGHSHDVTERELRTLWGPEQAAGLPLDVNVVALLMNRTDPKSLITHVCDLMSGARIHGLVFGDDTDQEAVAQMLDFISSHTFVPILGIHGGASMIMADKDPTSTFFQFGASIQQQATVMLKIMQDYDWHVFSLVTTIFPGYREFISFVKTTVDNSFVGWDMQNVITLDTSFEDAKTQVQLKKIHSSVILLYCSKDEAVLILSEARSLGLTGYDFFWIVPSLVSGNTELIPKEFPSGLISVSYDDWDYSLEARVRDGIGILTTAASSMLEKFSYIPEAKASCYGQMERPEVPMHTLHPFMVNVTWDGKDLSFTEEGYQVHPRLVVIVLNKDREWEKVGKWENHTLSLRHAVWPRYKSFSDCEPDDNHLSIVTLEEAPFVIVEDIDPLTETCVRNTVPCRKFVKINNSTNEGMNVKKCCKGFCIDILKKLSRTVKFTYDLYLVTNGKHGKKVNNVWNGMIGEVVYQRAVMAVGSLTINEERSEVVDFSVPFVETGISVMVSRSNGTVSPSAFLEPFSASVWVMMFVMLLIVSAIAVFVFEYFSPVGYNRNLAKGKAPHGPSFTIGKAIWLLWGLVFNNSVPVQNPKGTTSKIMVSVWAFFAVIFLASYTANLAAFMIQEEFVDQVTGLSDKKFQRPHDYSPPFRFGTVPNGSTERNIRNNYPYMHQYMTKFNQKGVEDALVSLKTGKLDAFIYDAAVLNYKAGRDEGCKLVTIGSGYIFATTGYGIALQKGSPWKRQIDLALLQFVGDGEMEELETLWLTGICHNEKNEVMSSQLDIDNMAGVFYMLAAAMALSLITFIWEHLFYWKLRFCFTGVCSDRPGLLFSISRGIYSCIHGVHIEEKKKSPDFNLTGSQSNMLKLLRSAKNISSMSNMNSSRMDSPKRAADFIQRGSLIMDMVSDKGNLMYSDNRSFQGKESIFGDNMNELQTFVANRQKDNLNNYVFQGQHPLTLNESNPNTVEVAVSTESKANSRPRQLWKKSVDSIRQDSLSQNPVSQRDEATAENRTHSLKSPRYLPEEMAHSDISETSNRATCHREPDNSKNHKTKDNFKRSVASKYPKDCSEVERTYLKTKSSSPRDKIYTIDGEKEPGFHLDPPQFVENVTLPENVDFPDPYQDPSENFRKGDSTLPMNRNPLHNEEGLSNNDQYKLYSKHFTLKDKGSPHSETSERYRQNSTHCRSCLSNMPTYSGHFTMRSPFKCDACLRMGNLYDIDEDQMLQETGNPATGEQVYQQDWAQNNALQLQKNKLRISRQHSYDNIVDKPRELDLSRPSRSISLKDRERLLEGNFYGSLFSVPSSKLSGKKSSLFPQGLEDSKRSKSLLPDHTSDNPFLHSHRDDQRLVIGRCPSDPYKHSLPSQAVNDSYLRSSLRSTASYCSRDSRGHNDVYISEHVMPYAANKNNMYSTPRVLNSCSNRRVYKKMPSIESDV

With `Cc1ncc(CNC(=O)c2ccc(CNS(=O)(=O)c3ccc(Cl)c4nonc34)cn2)s1` [5-(7-chloro-2,1,3-benzoxadiazole-4-sulfonamidomethyl)-N-[(2-methyl-1,3-thiazol-5-yl)methyl]pyridine-2-carboxamide], the IC50 is 10 µM under setting [1] and over 10 µM (read-out: Binned Activity).

Regarding `Cc1ncc(CNC(=O)c2cnc(CNC(=O)c3cccc(C#N)c3)c(C)n2)s1` [5-{[(3-cyanophenyl)formamido]methyl}-6-methyl-N-[(2-methyl-1,3-thiazol-5-yl)methyl]pyrazine-2-carboxamide], the IC50 reads like this: under setting [1], 10 µM; (read-out: Binned Activity) over 10 µM.

For `O=C(NCc1ccco1)c1ccc(CNS(=O)(=O)c2ccc(F)c(Cl)c2)nn1` [6-(3-chloro-4-fluorobenzenesulfon-amidomethyl)-N-(furan-2-ylmethyl)pyridazine-3-carboxamide], the IC50 is, setting by setting: under setting [1], 10 µM; (read-out: Binned Activity) over 10 µM.

Take `O=C(NCc1ccncn1)c1ccc(CNS(=O)(=O)c2ccc(F)c(Cl)c2)cn1` [5-(3-chloro-4-fluorobenzenesulfon-amidomethyl)-N-(pyrimidin-4-ylmethyl)pyridine-2-carboxamide]: the IC50 under setting [1] was 10 µM and the IC50 (read-out: Binned Activity) was over 10 µM.

As for `Cc1ncc(CNC(=O)c2cnc(CNS(=O)(=O)c3cc(Cl)cc(Cl)c3)c(C)n2)s1` [5-(3,5-dichlorobenzenesulfon-amidomethyl)-6-methyl-N-[(2-methyl-1,3-thiazol-5-yl)methyl]pyrazine-2-carboxamide], the IC50 runs as follows: under setting [1], 10 µM; (read-out: Binned Activity) over 10 µM.

Turning to `O=C(NC1CCS(=O)(=O)C1)c1ccc(CNS(=O)(=O)c2ccc(F)c(Cl)c2)cn1` (stereo not shown) [5-(3-chloro-4-fluorobenzenesulfon-amidomethyl)-N-(1,1-dioxo-1λ^6-thiolan-3-yl)pyridine-2-carboxamide], the IC50 under setting [1] came to 10 µM and the IC50 (read-out: Binned Activity) is over 10 µM.

As for `O=C(NCc1ccoc1)c1ccc(CNS(=O)(=O)c2ccc(F)c(Cl)c2)cn1` [5-(3-chloro-4-fluorobenzenesulfon-amidomethyl)-N-(furan-3-ylmethyl)pyridine-2-carboxamide], the IC50 was 10 µM under setting [1] and over 10 µM (read-out: Binned Activity).

As to `Cc1ncc(CNC(=O)c2cnc(CNS(=O)(=O)c3cccc(Cl)c3)cn2)s1` [5-(3-chlorobenzenesulfon-amidomethyl)-N-[(2-methyl-1,3-thiazol-5-yl)methyl]pyrazine-2-carboxamide], the IC50 (read-out: Binned Activity) is 0.1 to 1 µM.

Consider `O=C(NCc1cccnc1)c1ccc(CNS(=O)(=O)c2ccc(F)c(Cl)c2)nn1` [6-(3-chloro-4-fluorobenzenesulfon-amidomethyl)-N-(pyridin-3-ylmethyl)pyridazine-3-carboxamide], for which the IC50 under setting [1] amounted to 10 µM and the IC50 (read-out: Binned Activity) is over 10 µM.

For the molecule `O=C(NCc1ccncc1)c1ccc(CNS(=O)(=O)c2ccc(F)c(Cl)c2)nc1` [6-(3-chloro-4-fluorobenzenesulfon-amidomethyl)-N-(pyridin-4-ylmethyl)pyridine-3-carboxamide], the IC50 runs as follows: under setting [1], 10 µM; (read-out: Binned Activity) over 10 µM.

Turning to `COc1ccc(CNC(=O)c2ccc(CNS(=O)(=O)c3ccc(F)c(Cl)c3)nc2)cc1` [6-(3-chloro-4-fluorobenzenesulfon-amidomethyl)-N-[(4-methoxyphenyl)methyl] pyridine-3-carboxamide], the IC50 by setting is: under setting [1], 10 µM; (read-out: Binned Activity) over 10 µM.

For `Cn1cccc1CNC(=O)c1ccc(CNS(=O)(=O)c2ccc(F)c(Cl)c2)cn1` [5-(3-chloro-4-fluorobenzenesulfon-amidomethyl)-N-[(1-methyl-1H-pyrrol-2-yl)methyl]pyridine-2-carboxamide], the IC50 (read-out: Binned Activity) was in the range of 1 to 10 µM.

As to `Cc1ncc(CNC(=O)c2ccc(CNS(=O)(=O)c3ccoc3)cn2)s1` [5-(furan-3-sulfonamidomethyl)-N-[(2-methyl-1,3-thiazol-5-yl)methyl]pyridine-2-carboxamide], the IC50 was 10 µM under setting [1] and over 10 µM (read-out: Binned Activity).

For `O=C(NCc1cnccn1)c1ccc(CNS(=O)(=O)c2ccc(F)c(Cl)c2)nn1` [6-(3-chloro-4-fluorobenzenesulfon-amidomethyl)-N-(pyrazin-2-ylmethyl)pyridazine-3-carboxamide], the IC50 runs as follows: under setting [1], 10 µM; (read-out: Binned Activity) over 10 µM.

As to `Cc1ncc(CNC(=O)c2cnc(CNS(=O)(=O)c3ccccc3F)cn2)s1` [5-(2-fluorobenzenesulfon-amidomethyl)-N-[(2-methyl-1,3-thiazol-5-yl)methyl]pyrazine-2-carboxamide], the IC50 by setting is: under setting [1], 10 µM; (read-out: Binned Activity) over 10 µM.

Consider `O=C(NCc1cncs1)c1ccc(CNS(=O)(=O)c2ccc(F)c(Cl)c2)nn1` [6-(3-chloro-4-fluorobenzenesulfon-amidomethyl)-N-(1,3-thiazol-5-ylmethyl)pyridazine-3-carboxamide], for which the IC50 is 10 µM under setting [1] and over 10 µM (read-out: Binned Activity).

Consider `Cc1ncc(CNC(=O)c2ccc(CNS(=O)(=O)c3ccccc3F)cn2)s1` [5-(2-fluorobenzenesulfon-amidomethyl)-N-[(2-methyl-1,3-thiazol-5-yl)methyl]pyridine-2-carboxamide], for which the IC50 reads like this: under setting [1], 10 µM; (read-out: Binned Activity) over 10 µM.

For `Cc1ncc(CNC(=O)c2cnc(CNS(=O)(=O)c3ccc(F)cc3)cn2)s1` [5-(4-fluorobenzenesulfon-midomethyl)-N-[(2-methyl-1,3-thiazol-5-yl)methyl]pyrazine-2-carboxamide], the IC50 (read-out: Binned Activity) is 1 to 10 µM.

For the molecule `O=C(NCc1cccnc1)c1ccc(CNS(=O)(=O)c2ccc(F)c(Cl)c2)cn1` [5-(3-chloro-4-fluorobenzenesulfon-amidomethyl)-N-(pyridin-3-ylmethyl)pyridine-2-carboxamide], the IC50 (read-out: Binned Activity) was in the range of 0.1 to 1 µM.

For `Cc1ncsc1CNC(=O)c1cnc(CNS(=O)(=O)c2ccc(F)c(Cl)c2)cn1` [5-(3-chloro-4-fluorobenzenesulfon-amidomethyl)-N-[(4-methyl-1,3-thiazol-5-yl)methyl]pyrazine-2-carboxamide], the IC50 was 10 µM under setting [1] and over 10 µM (read-out: Binned Activity).

For `Cc1ncc(CNC(=O)c2cnc(CNS(=O)(=O)c3cc(F)cc(F)c3)c(C)n2)s1` [5-(3,5-difluorobenzenesulfon-amidomethyl)-6-methyl-N-[(2-methyl-1,3-thiazol-5-yl)methyl]pyrazine-2-carboxamide], the IC50 (read-out: Binned Activity) lay in the range of 0.1 to 1 µM.

On to `Cc1nc(C)c(CNC(=O)c2ccc(CNS(=O)(=O)c3ccc(F)c(Cl)c3)nn2)s1` [6-(3-chloro-4-fluorobenzenesulfon-amidomethyl)-N-[(dimethyl-1,3-thiazol-5-yl)methyl]pyridazine-3-carboxamide], for which the IC50 under setting [1] was found to be 10 µM and the IC50 (read-out: Binned Activity) was over 10 µM.

As for `Cc1ncc(CNC(=O)c2cnc(CNS(=O)(=O)c3ccc(Cl)c(Cl)c3)c(C)n2)s1` [5-(3,4-dichlorobenzenesulfon-amidomethyl)-6-methyl-N-[(2-methyl-1,3-thiazol-5-yl)methyl]pyrazine-2-carboxamide], under “read-out: Binned Activity”, the IC50 is 0.1 to 1 µM.

Regarding `COc1ccc(CNC(=O)c2cnc(CNS(=O)(=O)c3ccc(F)c(Cl)c3)cn2)cn1` [5-(3-chloro-4-fluorobenzenesulfon-amidomethyl)-N-[(6-methoxypyridin-3-yl)methyl]pyrazine-2-carboxamide], the IC50 was 10 µM under setting [1] and over 10 µM (read-out: Binned Activity).

`Cc1ncc(CNC(=O)c2cnc(CNC(=O)c3cccc(Cl)c3C)c(C)n2)s1` [5-{[(3-chloro-2-methylphenyl)formamido]methyl}-6-methyl-N-[(2-methyl-1,3-thiazol-5-yl)methyl]pyrazine-2-carboxamide]: the IC50 runs as follows: under setting [1], 10 µM; (read-out: Binned Activity) over 10 µM.

Consider `O=C(NCc1cocn1)c1cnc(CNS(=O)(=O)c2ccc(F)c(Cl)c2)cn1` [5-(3-chloro-4-fluorobenzenesulfon-amidomethyl)-N-(1,3-oxazol-4-ylmethyl)pyrazine-2-carboxamide], for which the IC50 was 10 µM under setting [1] and over 10 µM (read-out: Binned Activity).

On to `C[C@@H](NC(=O)c1ccc(CNS(=O)(=O)c2ccc(F)c(Cl)c2)cn1)c1cncs1` [5-(3-chloro-4-fluorobenzenesulfon-amidomethyl)-N-[(1R)-1-(1,3-thiazol-5-yl)ethyl]pyridine-2-carboxamide], for which the IC50 was 10 µM under setting [1] and over 10 µM (read-out: Binned Activity).

As to `COc1ccc(CNC(=O)c2ccc(CNS(=O)(=O)c3ccc(F)c(Cl)c3)nc2)cn1` [6-(3-chloro-4-fluorobenzenesulfon-amidomethyl)-N-[(6-methoxypyridin-3-yl)methyl]pyridine-3-carboxamide], the IC50 is, setting by setting: under setting [1], 10 µM; (read-out: Binned Activity) over 10 µM.

In the case of `Cc1nc(C)c(CNC(=O)c2ccc(CNS(=O)(=O)c3ccc(F)c(Cl)c3)cn2)s1` [5-(3-chloro-4-fluorobenzenesulfon-amidomethyl)-N-[(dimethyl-1,3-thiazol-5-yl)methyl]pyridine-2-carboxamide], the IC50 is, setting by setting: under setting [1], 10 µM; (read-out: Binned Activity) over 10 µM.
